Data set [1] can be described thus: ASSAY (III) ThT fibrillation assay for physical stability. Format: physicochemical. The essentials:
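Formulations with 1 μM ThT, pH adjusted as required, incubated at 37 °C with 960 rpm orbital shaking; fluorescence (ex 444/em 485 nm) read every 20 min. Fibrillation reported as mean ThT fluorescence ± SD of 4–8 replicates at time points; polypeptide concentration measured by reverse-phase HPLC before and after, post-centrifugation.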

Data set [2] in a line: ASSAY (IV) determination of solubility. Format: physicochemical. In a few lines: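 Polypeptide stock in water ([…]) was mixed 1:1 with 100 mM buffers: glycylglycine at pH 3.0, 4.0, 5.0 and bistrispropane at pH 6.0, 6.5, 7.0, 7.5, 8.0. After 18 hours at room temperature, samples were centrifuged and polypeptide concentration measured by UPLC.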
The target of data set [3] is T1, rat amylin receptor (rat calcitonin receptor + rat RAMP 3) (Rattus norvegicus, UniProt P32214+Q9JJ73).
T1 construct: expressed in transfected cells; host or cells: BHK tk'ts 13 (transient, FuGENE 6), membranes
T1 sequence (P32214 25-479 isoform P32214-2 limits assumed): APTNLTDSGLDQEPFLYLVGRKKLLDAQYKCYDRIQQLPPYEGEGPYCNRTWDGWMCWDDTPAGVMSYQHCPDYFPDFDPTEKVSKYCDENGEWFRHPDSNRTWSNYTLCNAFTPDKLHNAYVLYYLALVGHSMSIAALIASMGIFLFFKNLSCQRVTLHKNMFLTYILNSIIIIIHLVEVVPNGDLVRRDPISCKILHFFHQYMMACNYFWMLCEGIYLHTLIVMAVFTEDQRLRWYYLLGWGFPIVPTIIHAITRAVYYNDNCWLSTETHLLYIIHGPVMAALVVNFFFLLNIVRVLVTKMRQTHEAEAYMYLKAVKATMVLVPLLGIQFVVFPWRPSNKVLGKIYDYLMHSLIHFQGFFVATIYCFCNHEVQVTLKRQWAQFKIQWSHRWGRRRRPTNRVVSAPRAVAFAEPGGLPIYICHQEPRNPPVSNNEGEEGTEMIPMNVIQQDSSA
T1 sequence (Q9JJ73 23-147 partner): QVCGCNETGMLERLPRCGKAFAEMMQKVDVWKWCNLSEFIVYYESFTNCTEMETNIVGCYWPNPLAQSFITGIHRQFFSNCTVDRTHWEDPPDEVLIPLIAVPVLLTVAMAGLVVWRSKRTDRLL
Kind of data set: ASSAY (VI) binding to the rat amylin receptor. The following applies: for IC50: binding to rat amylin receptor, read-out: rAmylin-R bind IC50. The essentials:
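Binding to the rat amylin receptor was determined with membrane preparations. The receptor was expressed by transiently transfecting BHK tk′ts 13 cells with rat calcitonin receptor, using FuGENE® 6 (Roche) according to the manufacturer's recommendations. Roughly 48 hours later the cells were harvested and their membranes isolated.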

The mark [4] stands for this setting: bistrispropane buffer, pH 6.5, read-out: Solubility pH 6.5 Concentration.
Where [5] appears, read: bistrispropane buffer, pH 7.5, read-out: Solubility pH 7.5 Concentration.
[6] abbreviates: bistrispropane buffer, pH 6.0, read-out: Solubility pH 6.0 Concentration.
[7] abbreviates: bistrispropane buffer, pH 7.0, read-out: Solubility pH 7.0 Concentration.
Setting [8] is: bistrispropane buffer, pH 8.0, read-out: Solubility pH 8.0 Concentration.
The mark [9] stands for this setting: glycylglycine buffer, pH 3.0, read-out: Solubility pH 3.0 Concentration.
Where [10] appears, read: glycylglycine buffer, pH 4.0, read-out: Solubility pH 4.0 Concentration.
[11] abbreviates: glycylglycine buffer, pH 5.0, read-out: Solubility pH 5.0 Concentration.
[12] abbreviates: Table 7, rat binding selectivity, rCTR IC50 / rAmylin-R IC50.
Where [13] appears, read: Table 7a (preferred compounds), rat binding selectivity, rCTR IC50 / rAmylin-R IC50.
Where [14] appears, read: ratio of rCTR bind IC50 to rAmylin-R bind IC50.

The record followed here is patent US9023789B2, “Amylin analogs and pharmaceutical compositions thereof” (Novo Nordisk A/S, priority 2012, dated 2015).

Values after ≈ are worked out from the molar mass of the structure shown. Read-outs that look alike come from different tables or passages of the source. Numbered stars: 1 amine (or outer) side, 2 acyl side, 3 side chain; on linkers, the order of the positions; unused ones are H or OH. Bridge positions count the residues as written; N and C are the ends. Side chains are listed from the residue outwards. Peptide text beside a SMILES is read from it. * marks the point of attachment. C20 diacid = O=C(O)CCCCCCCCCCCCCCCCCCC(=O)*; γGlu = O=C(O)[C@H](CCC(=O)[*:2])N[*:1]

Take `CC[C@H](C)[C@H](NC(=O)[C@H](C)NC(=O)CNC(=O)[C@H](Cc1ccccc1)NC(=O)[C@H](CC(N)=O)NC(=O)[C@@H]1CCCN1C(=O)[C@H](CO)NC(=O)[C@H](CO)NC(=O)[C@H](Cc1c[nH]cn1)NC(=O)[C@H](CCCNC(=N)N)NC(=O)[C@H](CC(C)C)NC(=O)[C@H](Cc1ccccc1)NC(=O)[C@H](CCC(=O)O)NC(=O)[C@H](C)NC(=O)[C@H](CC(C)C)NC(=O)[C@H](CCCNC(=N)N)NC(=O)[C@H](CCC(N)=O)NC(=O)[C@@H](NC(=O)[C@H](C)NC(=O)[C@@H]1CSSC[C@H](NC(=O)[C@@H](N)CCCCNC(=O)CC[C@H](NC(=O)CCCCCCCCCCCCCCCCCCC(=O)O)C(=O)O)C(=O)N[C@@H](CC(N)=O)C(=O)N[C@@H]([C@@H](C)O)C(=O)N[C@@H](C)C(=O)N[C@@H]([C@@H](C)O)C(=O)N1)[C@@H](C)O)C(=O)N1CCC[C@H]1C(=O)N[C@@H](CO)C(=O)N[C@@H](CO)C(=O)N[C@H](C(=O)N[C@@H](CC(N)=O)C(=O)N[C@H](C(=O)NCC(=O)N[C@@H](CO)C(=O)N[C@@H](Cc1c[nH]cn1)C(=O)N[C@H](C(=O)N[C@@H](Cc1ccc(O)cc1)C(N)=O)[C@@H](C)O)C(C)C)[C@@H](C)O` [Example 128] (H-K([γGlu-C20 diacid])CNTATCATQRLAEFLRHSSPNFGAIPSSTNVGSHTY-NH2; disulfide 2-7 (inferred); N-terminus assumed): the “ThT pH 4.0 lag time (h)” value in data set [1] is reported as 41 h. The solubility at 18 h in data set [2] (setting [4]), in data set [2] (setting [5]), in data set [2] (setting [6]), in data set [2] (setting [7]), in data set [2] (setting [8]) and in data set [2] (setting [9]) was at least 200 µM each time. The solubility at 18 h in data set [2] (setting [10]) and in data set [2] (setting [11]) was at least 200 µM throughout. Also, the IC50 in data set [3] (Table 7) was found to be 1.16 nM. For the same compound, the “Ratio rCT/rAmylin binding” value in data set [3] (setting [12]), in data set [3] (setting [13]) and in data set [3] (setting [14]) was 22.7 throughout.
For `CC[C@H](C)[C@H](NC(=O)[C@H](C)NC(=O)CNC(=O)[C@H](Cc1ccccc1)NC(=O)[C@H](CC(N)=O)NC(=O)[C@@H]1CCCN1C(=O)[C@H](CO)NC(=O)[C@H](CO)NC(=O)[C@H](Cc1c[nH]cn1)NC(=O)[C@H](CCCNC(=N)N)NC(=O)[C@H](CC(C)C)NC(=O)[C@H](Cc1ccccc1)NC(=O)[C@H](CC(=O)O)NC(=O)[C@H](C)NC(=O)[C@H](CC(C)C)NC(=O)[C@H](CCCNC(=N)N)NC(=O)[C@H](CCC(N)=O)NC(=O)[C@@H](NC(=O)[C@H](C)NC(=O)[C@@H]1CSSC[C@H](NC(=O)[C@@H](N)CCCCNC(=O)CC[C@H](NC(=O)CCCCCCCCCCCCCCCCCCC(=O)O)C(=O)O)C(=O)N[C@@H](CC(N)=O)C(=O)N[C@@H]([C@@H](C)O)C(=O)N[C@@H](C)C(=O)N[C@@H]([C@@H](C)O)C(=O)N1)[C@@H](C)O)C(=O)N1CCC[C@H]1C(=O)N[C@@H](CO)C(=O)N[C@@H](CO)C(=O)N[C@H](C(=O)N[C@@H](CC(N)=O)C(=O)N[C@H](C(=O)NCC(=O)N1CCC[C@H]1C(=O)N[C@@H](CCCNC(=N)N)C(=O)N[C@H](C(=O)N[C@@H](Cc1ccc(O)cc1)C(N)=O)[C@@H](C)O)C(C)C)[C@@H](C)O` [Example 129] (H-K([γGlu-C20 diacid])CNTATCATQRLADFLRHSSPNFGAIPSSTNVGPRTY-NH2; disulfide 2-7 (inferred); N-terminus assumed), the “ThT pH 4.0 lag time (h)” value in data set [1] was 45 h. Moreover, the solubility at 18 h in data set [2] (setting [4]) is at least 200 µM; in data set [2] (setting [5]), 187 µM (≈ 829 µg/mL); in data set [2] (setting [6]) it was at least 200 µM; in data set [2] (setting [7]), at least 200 µM; in data set [2] (setting [8]) it was 102 µM (≈ 452 µg/mL); in data set [2] (setting [9]), at least 200 µM. The solubility at 18 h in data set [2] (setting [10]) and in data set [2] (setting [11]) was at least 200 µM throughout. In addition, the IC50 in data set [3] (Table 7) was determined as 0.504 nM. Besides, the “Ratio rCT/rAmylin binding” value in data set [3] (setting [12]), in data set [3] (setting [13]) and in data set [3] (setting [14]) was 116.0 in each case.
Consider `CC[C@H](C)[C@H](NC(=O)[C@H](C)NC(=O)CNC(=O)[C@H](Cc1ccccc1)NC(=O)[C@H](CC(N)=O)NC(=O)[C@@H]1CCCN1C(=O)[C@H](CO)NC(=O)[C@H](CO)NC(=O)[C@H](Cc1c[nH]cn1)NC(=O)[C@H](CCCNC(=N)N)NC(=O)[C@H](CC(C)C)NC(=O)[C@H](Cc1ccccc1)NC(=O)[C@H](CC(=O)O)NC(=O)[C@H](C)NC(=O)[C@H](CC(C)C)NC(=O)[C@H](CCCNC(=N)N)NC(=O)[C@H](CCC(N)=O)NC(=O)[C@@H](NC(=O)[C@H](C)NC(=O)[C@@H]1CSSC[C@H](NC(=O)[C@@H](N)CCCCNC(=O)CC[C@H](NC(=O)CC[C@H](NC(=O)CCCCCCCCCCCCCCCCCCC(=O)O)C(=O)O)C(=O)O)C(=O)N[C@@H](CC(N)=O)C(=O)N[C@@H]([C@@H](C)O)C(=O)N[C@@H](C)C(=O)N[C@@H]([C@@H](C)O)C(=O)N1)[C@@H](C)O)C(=O)N1CCC[C@H]1C(=O)N[C@@H](CO)C(=O)N[C@@H](CO)C(=O)N[C@H](C(=O)N[C@@H](CC(N)=O)C(=O)N[C@H](C(=O)NCC(=O)N1CCC[C@H]1C(=O)N[C@@H](CCCNC(=N)N)C(=O)N[C@H](C(=O)N[C@@H](Cc1ccc(O)cc1)C(N)=O)[C@@H](C)O)C(C)C)[C@@H](C)O` [Example 130] (H-K([γGlu-γGlu-C20 diacid])CNTATCATQRLADFLRHSSPNFGAIPSSTNVGPRTY-NH2; disulfide 2-7 (inferred); N-terminus assumed), for which, in data set [1], the “ThT pH 4.0 lag time (h)” value was 45 h. The solubility at 18 h in data set [2] (setting [4]), in data set [2] (setting [5]), in data set [2] (setting [6]), in data set [2] (setting [7]), in data set [2] (setting [8]) and in data set [2] (setting [9]) was at least 200 µM in each case. For the same compound, the solubility at 18 h in data set [2] (setting [10]) and in data set [2] (setting [11]) was at least 200 µM each time. Besides, the IC50 in data set [3] (Table 7) stood at 0.93 nM. Moreover, the “Ratio rCT/rAmylin binding” value in data set [3] (setting [12]), in data set [3] (setting [13]) and in data set [3] (setting [14]) was 239.5 in each case.

As usually defined, the IC50 is the midpoint of a concentration-inhibition curve.
